# In patent US20090162277A1, “Lysophospholipids Solubilized Single-Walled Carbon Nanotubes” (Clemson University, priority 2005, published 2009):
# Read-outs that look alike come from different tables or passages of the source.
# Assays:
# [1] = Solubility assay of SWNTs dispersed in PBS with phospholipids (optical density of supernatant); assay type: physicochemical
# Excerpt: Pristine SWNTs were synthesized using arc-deposition method. The average diameter of the SWNTs was approximately 1.4 nm measured by Raman spectroscopy and the average molecular weight of the SWNTs was 1×10^6 Dalton (Da) estimated from TEM. To measure the solubility provided by pure phospholipids, SWNTs were dispersed in phosphate buffered saline (PBS, pH=7.4) containing phospholipids of varying amounts. […] The weight ratio of solubilized SWNTs to LPC was approximately 1:10 corresponding to a molar ratio of 1:20,000 at saturation (FIG. 2b), indicating the high binding capacity of SWNTs.
# Solubility Assays. Glycerol phospholipids and lysoglycerophopholipids were purchased from Avanti Polar Lipids, Inc, AL. Cell growth mediums NB and RPMI fortified with 10% FBS were obtained from Difco and Gibco (Invitrogen), respectively. SWNTs of 1 mg were placed in a series of eppendorf tubes containing lysophospholipids LPC 18:0, PC 24:0, PG 36:2, and PE 32:0 of 10, 40, 100, 400 μg and 1, 4, 10, 40 mg in 1 mL PBS solution. The eppendorf tubes were placed in a water bath and sonicated for 1 hr at room temperature. The solution was centrifuged for 3 min at 6,177 g. Approximately 0.3 mL of the supernatant was transferred into a glass cuvette and read for optical density against a blank at 360 nm. Size Exclusion Chromatography. Sepharose CL-4B beads (Sigma) having an exclusion limit molecular weight of 20×10^6 Da were used for gel filtration chromatography in a 10 mm (diameter)×150 mm (length) open column. The flow rate was produced by gravity at approximately 0.5 mL/min. Samples in 1×PBS of 40 μL were loaded onto the column with 1 M acetic acid as the mobile phase. Molecular weight markers with visible colours were used for calibration. The dark colour of the lysophospholipid dispersed SWNTs was monitored visually by comparing the elution volume with those of standard compounds. SWNT-LPC complexes were centrifuged at 16,060 g and SWNT-LPA complexes centrifuged at 6,177 g for 3 min. Their supernatants were used for size exclusion chromatography. TEM Experiment. Buffered solutions of SWNT-LPC and SWNT-LPG were sonicated for 1 min. The solutions were placed on holey carbon grids for 1 min and the excess drawn off with filter paper. The grid was negatively stained with a 2% uranyl acetate solution for 1 min. The images were recorded at magnification ranges from 400,000 to 600,000 times with the Hitach 7600 transmission electron microscope at 100 and 120 kV. Bioassay. Free lysophospholipids and micelles in SWNT-lysophospholipid solution were removed by filtration through 100 kDa Microcon (Amicon, Inc) centrifugation tubes and washed 4 times. The resulting lysophospholipid-free and micelle-free SWNT-LPC complexes were tested by […] bioassay using colon cancer (CACO-2) and macrophage (THP-1) cell lines. Each cell line was incubated in its own 8-well chamber slide (LabTek) for 48 hr at 37° C. in a CO2 incubator. Prior to treatment, cell adhesion was checked by differential interference contrast (DIC) microscopy using a Zeiss 135 Axiovert inverted microscope. Treatments ranging from 5 to 40 ppm of lysophospholipid-free and micelle-free SWNT-LPC complexes were added to each adherent cell line and incubated for 3 hr at 37° C. in a CO2 incubator. After incubation, control and treated cells were fixed with 4% paraformaldehyde for 30 min, washed in PBS and subjected to an APO-BrdU TUNEL assay (Invitrogen). This assay detects the onset of apoptosis by fluorescent detection of nuclear DNA fragments or DNA breaks. Cells were labeled with deoxythymidine analog 5-bromo-2′-deoxyuridine 5′ triphosphate (BrdUTP) followed by the addition of Alexa-Fluor 488 labeled anti-BrdU antibody. Propidium iodide was used to image the total DNA content of cells. The prepared cells were imaged using a Zeiss 510 LSM confocal fluorescence microscope.
# [2] = test system: MCF7 cells; test: Rd-LPE translocation across cell membranes (rhodamine fluorescence imaging); assay type: cell-based; conditions: incubation 0.5 to 3.0 hours
# Experimental: The SWNT lipid assemblies described above may be used to form an “optical switch” using rhodamine-lysophosphoethanolamine (Rd-LPE) and SWNTs. […] The construct of a Rd-LPE molecule and a coupled SWNT functions as a fluorescence resonance energy transfer (FRET) pair. […] FIG. 7A sets forth a control image without SWNTs. Rd-LPE was incubated with MCF7 cells for three hours. […] Images 7C through 7F show increased translocation of Rd-LPE across the MCF7 cells with respective incubation times of 0.5, 1.0, 2.0, and 3.0 hours. […] Further, the fluorescence is indicative that a physical separation between the SWNT and the Rd-LPE has occurred since the quenching effect was not observed.
Compound,solubility of SWNTs provided by the phospholipid [1],further results
"CCCCCCCC/C=C\CCCCCCCC(=O)OCC(COP(=O)(O)OCC(O)CO)OC(=O)CCCCCCC/C=C\CCCCCCCC (stereo not shown) [PG 36:2, 1,2-dioleoylphosphatidylglycerol, reference compound]",None of the above phospholipids provided good solubility,
rhodamine-lysophosphoethanolamine [Rd-LPE],,translocation across the cell membrane (intracellular rhodamine fluorescence) [2]: minimal Rd-LPE translocation
"CCCCCCCCCCCCCC(=O)OC[C@H](COP(=O)([O-])OCC[N+](C)(C)C)OC(=O)CCCCCCCCCCCCC [PC 24:0, dimyristoyl phosphatidyl choline, reference compound]",None of the above phospholipids provided good solubility,
"CCCCCCCCCCCCCCCC(=O)OCC(COP(=O)(O)OCCN)OC(=O)CCCCCCCCCCCCCCC (stereo not shown) [PE 32:0, 1,2-dipalmityolphosphatidylethanolamine, reference compound]",None of the above phospholipids provided good solubility,
lysophosphatidylcholine [LPC 18:0],,"effectiveness in dispersing SWNTs in PBS relative to SDS, on per molecule basis ([1]; 6,177 g RCF at tip): approximately 2.5 times; effectiveness in dispersing SWNTs relative to SDS ([1]; 16,060 g RCF at tip): one order of magnitude more effective than SDS; solubility of SWNTs provided by the phospholipid ([1]; SWNTs in PBS pH=7.4, sonication 1 hr at room temperature): completely solubilized"
lysophosphatidylglycerol [LPG 18:0],Comparable solubility,solubility of SWNTs compared with SDS [1]: slightly better than SDS
lysophosphatidic acid [LPA 16:0],Comparable solubility,
